19 compounds from BindingDB's records for doi:10.1111/j.1747-0285.2010.00957.x (Pfizer, 2010) can be followed below.

For experiment [1], the target named is T1, Phosphopantetheine adenylyltransferase (Escherichia coli (strain K12), UniProt P0A6I6). Kind of experiment: High-Throughput Screening Assay (Forward Direction Assay). As to the method: (§1) PPAT screening assay (forward-direction assay) were performed in clear 384 well plates containing in each well either 1-uL DMSO, 1 uL of variable concentrations of test compounds solvated in DMSO or 1 uL of a 100-uM solution of a dipeptide inhibitor of PPAT in DMSO which serves as the fully inhibit control.

Experiment [2] has as its target Phosphopantetheine adenylyltransferase (Enterococcus faecalis (strain ATCC 700802 / V583), UniProt Q831P9). Described as above. As to the method:
as §1

Experiment [3] concerns the target T1, Phosphopantetheine adenylyltransferase. Kind of experiment: Reverse PPAT Assay. As to the method: The reverse assay was performed in polyproplene 96-well plates containing in each well either 1 uL DMSO, 1 µL of variable concentrations of test compounds solvated in DMSO or 1 µL of a 100-uM solution of a dipeptide inhibitor of PPAT in DMSO which serves as control.

Each structure is given as a SMILES string.

T1 sequence (P0A6I6 whole entry): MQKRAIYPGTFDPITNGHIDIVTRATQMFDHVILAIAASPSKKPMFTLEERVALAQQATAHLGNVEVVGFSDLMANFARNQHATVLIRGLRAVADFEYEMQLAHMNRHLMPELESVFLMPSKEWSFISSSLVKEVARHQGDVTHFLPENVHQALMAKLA
Chain of Phosphopantetheine adenylyltransferase (Enterococcus faecalis (strain ATCC 700802 / V583), UniProt Q831P9) (Q831P9 whole entry): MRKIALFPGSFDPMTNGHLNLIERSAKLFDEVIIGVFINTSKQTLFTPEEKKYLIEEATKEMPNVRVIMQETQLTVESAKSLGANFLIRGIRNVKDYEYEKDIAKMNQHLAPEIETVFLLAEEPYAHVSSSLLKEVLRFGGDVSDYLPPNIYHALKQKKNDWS

As to `Cc1c(C(=O)O)[nH]n2c(=O)c3ccc(Cl)cc3nc12` [3-substituted pyrazoloquinolone, 24], the concentration for half-maximal inhibition (IC50) is 106 µM in experiment [1] and more than 167 µM in experiment [2].
Take `Cn1c2ccc(Cl)cc2c(=O)n2nc(C(=O)O)cc12` [4-substituted pyrazoloquinolone, 18]: half-maximal inhibition in experiment [1] (IC50) was put at 160 µM.
For the compound `Cc1ccc2c(=O)n3[nH]c(C(=O)O)cc3nc2c1` [6-substituted pyrazoloquinolone, 19], the 50% inhibitory concentration (IC50) in experiment [1] is 15 µM; in experiment [2], more than 167 µM.
For `O=C(O)c1cc2nc3cc(C(F)(F)F)ccc3c(=O)n2[nH]1` [6-substituted pyrazoloquinolone, 20], the IC50 in experiment [3] is 200 µM; in experiment [1] it was 54 µM; in experiment [2] it was more than 167 µM.
`Nc1ccc2c(=O)n3[nH]c(C(=O)O)cc3nc2c1` [6-substituted pyrazoloquinolone, 21]: the IC50 is 121 µM in experiment [1] and 100 µM in experiment [2].
In the case of `O=C(O)c1cc2nc3cc(Br)ccc3c(=O)n2[nH]1` [6-substituted pyrazoloquinolone, 22], the concentration for half-maximal inhibition (IC50) in experiment [3] is more than 125 µM; in experiment [1], 124 µM; in experiment [2], more than 167 µM.
Taken in the same sequence, the figures for `O=C(O)c1cc2nc3cc(Cl)ccc3c(=O)n2[nH]1` [6-substituted pyrazoloquinolone, 23] were 93 µM, 49 µM and 212 µM.
The matching figures for `O=C(O)c1cc2nc3ccccc3c(=O)n2[nH]1` [7-substituted pyrazoloquinolone, 6]: more than 230 µM, 253 µM and more than 167 µM.
In experiment [1], `Cc1ccc2nc3cc(C(=O)O)[nH]n3c(=O)c2c1` [7-substituted pyrazoloquinolone, 7] returned a half-inhibitory concentration (IC50) of 244 µM.
`O=C(O)c1cc2nc3ccc(Cl)cc3c(=O)n2[nH]1` [7-substituted pyrazoloquinolone, 8]: the concentration for half-maximal inhibition (IC50) in experiment [1] was 17 µM; in experiment [2] it was more than 75 µM.
In the case of `O=C(O)c1cc2nc3ccc(F)cc3c(=O)n2[nH]1` [7-substituted pyrazoloquinolone, 9], the figures for the IC50 in experiment [1] and in experiment [2] were 103 µM and more than 167 µM, respectively.
`O=C(O)c1cc2nc3ccc(Br)cc3c(=O)n2[nH]1` [7-substituted pyrazoloquinolone, 10]: the values for the IC50 in experiment [3], in experiment [1] and in experiment [2] were 22 µM, 6.2 µM and 209 µM, respectively.
Taken in the same sequence, the figures for `O=C(O)c1cc2nc3ccc(I)cc3c(=O)n2[nH]1` [7-substituted pyrazoloquinolone, 11] were 11 µM, 5.1 µM and more than 137 µM.
The matching figures for `CSc1ccc2nc3cc(C(=O)O)[nH]n3c(=O)c2c1` [7-substituted pyrazoloquinolone, 12]: 8.8 µM, 13 µM and more than 65 µM.
Consider `C[S+]([O-])c1ccc2nc3cc(C(=O)O)[nH]n3c(=O)c2c1` (centres undefined) [7-substituted pyrazoloquinolone, 13], for which the values for the IC50 in experiment [1] and in experiment [2] were 166 µM and 20 µM, respectively.
`CS(=O)(=O)c1ccc2nc3cc(C(=O)O)[nH]n3c(=O)c2c1` [7-substituted pyrazoloquinolone, 14]: half-maximal inhibition in experiment [1] (IC50) was put at 92 µM.
Regarding `CC(C)Sc1ccc2nc3cc(C(=O)O)[nH]n3c(=O)c2c1` [7-substituted pyrazoloquinolone, 15], the IC50 in experiment [3] amounted to 5 µM; in experiment [1], 14 µM; in experiment [2] it was 249 µM.
For the compound `CN(C)c1ccc2nc3cc(C(=O)O)[nH]n3c(=O)c2c1` [7-substituted pyrazoloquinolone, 16], the half-maximal inhibitory concentration (IC50) in experiment [3] was 7.1 µM; in experiment [1], 49 µM; in experiment [2], 157 µM.
Take `COc1ccc2nc3cc(C(=O)O)[nH]n3c(=O)c2c1` [7-substituted pyrazoloquinolone, 17]: the 50% inhibitory concentration (IC50) in experiment [1] was more than 150 µM; in experiment [2], more than 167 µM.

The term IC50 denotes the concentration at which inhibition is half-maximal. Low values mean inhibition by little substance, high ones a need for much substance.
